The values that follow come from patent publication US4328235A, “Suppressing pain with benzothiazol-2(3H)-ones” (Boehringer Ingelheim GmbH, priority 1979, dated 1982).

Structures are written as SMILES. Read-outs that look alike come from different tables or passages of the source.

The term LD50 denotes the dose at which mortality reaches 50%. Low readings indicate greater toxicity, high ones lower toxicity. In general, ED50 refers to the midpoint of the dose-response relation.

Data set [1] has as its system Sensitivity of the Mouse in the Hot Plate Test. Kind of data set: Hot plate test (sensitivity of the mouse, increase of reaction time). It counts as in vivo. Conditions: po, read-out: ED100 (dose which increased the time of reaction by 100%). As to the method:
The test substances were administered as trituration in 1% methyl cellulose (0.1 ml/10 g of mouse) by means of an oesophageal tube.
Before treatment with the test substances, the animals were twice put on the hot plate at an interval of 30 minutes, whereby their individual times of reaction were measured. After treatment with a test substance, the times of reaction of the animals were again measured in an interval of 30 minutes.
On the technique in general: In hot-plate and tail-flick tests a longer latency is read as antinociception.

A short description of another data set: Acute toxicity in mice. Conditions: mouse, in vivo, po; Chbb-NMRI (SPF)-mice of both sexes, oesophageal tube, deaths within 14 days. The procedure: The acute toxicity was determined in Chbb-NMRI (SPF)-mice of both sexes, having an average body weight of 20 grams. The test compounds were administered as a trituration in 1% methyl cellulose (0.5 ml/10 g of animal) by means of an oesophageal tube. The calculation of the LD50 values was effected according to the method of LITCHFIELD and WILCOXON [J. Pharmacol. Exp. Ther., 96. 99 (1949)], based on the percentage of animals which died within 14 days after administration of different doses.

Data set [2] has as its system Pain of Inflammation on the Back Paw of the Rat. The data set is described as follows: Randall-Selitto test (pain of inflammation, yeast oedema, back paw of the rat). It counts as in vivo. Particulars: po, 0.75 h, read-out: ED50 (dose which increased the pain threshold by 50%). As to the method: The activity against the pain caused by inflammation was tested according to the method of RANDALL-SELITTO [Arch. Int. […] After a further 45 minutes the pain threshold was determined in the animals treated with the test compound and in the control animals treated only with the vehicle.

For data set [3], the system named is body temperature of Chbb:THOM-rats. Kind of data set: Antipyretic activity (rectal body temperature of rats). It counts as in vivo, rat. Conditions: for ED (-1.5 degC): Rattus norvegicus, po, read-out: ED-1.5° C. (dose which decreases the body temperature by 1.5° C.). The procedure: The test substances were administered as a trituration in a 1% methyl cellulose in portions of 1.0 ml/100 g of animal using an oesophageal tube.
From the values for the average maximum decline of temperature, which were gained after the administration of the different doses of the test substances, and after a linear regression analysis according to LINDER, an ED-1.5° C. was calculated with the confidence limits according to FIELLER as the dose which decreases the body temperature by 1.5° C.

For a further data set, the system named is methemoglobin. The data set is described as follows: Determination of the level of methemoglobin in the cat. It counts as in vivo. Particulars: oesophageal tube. As to the method:
The test substances were administered to cats of both sexes having an average body weight of 2.5 kg, as a trituration in 1% methyl cellulose using an oesophageal tube (2 ml/kg; the oesophageal tube was cleared in situ by aqua bidestillata). After a single application blood-tests were taken by heart-punctuation at different times, that is, at 3 hours, 5 hours, 24 hours, and 48 hours after administration. The photometric registration of the spectrum of hemoglobin as well as the determination of the content of hemoglobin in comparison to controls were effected according to the method of LEMBERG and LEGGE [Hematin Compounds and Bile Pigments, Interscience Publishers, New York (1949)].

For data set [4] the following is noted: literature: W. Nimmich, Pharmazie, 19, (4), 281 (1964); cited from earlier work.
Setting [5] is: male Chbb:NMRI (SPF)-mice, oesophageal tube, hot plate 52° C.
Where [6] appears, read: male Chbb:THOM-rats, oesophageal tube, 45 minutes after administration.
Where [7] appears, read: Chbb:THOM-rats, oesophageal tube.
[8] abbreviates: 100 mg/kg, 3 hours after administration.
The mark [9] stands for this setting: 100 mg/kg, 5 hours after administration.
Where [10] appears, read: 100 mg/kg, 24 hours after administration.
Where [11] appears, read: 200 mg/kg, 3 hours after administration.
Where [12] appears, read: 200 mg/kg, 5 hours after administration.
The mark [13] stands for this setting: 200 mg/kg, 24 hours after administration.
Setting [14] is: 50 mg/kg, 3 hours after administration.
The mark [15] stands for this setting: 50 mg/kg, 5 hours after administration.
[16] abbreviates: 50 mg/kg, 24 hours after administration.

For the compound `COc1ccc2nc(O)sc2c1` [B, 6-Methoxy-benzothiazol-2(3H)-one], the ED100 in data set [1] (setting [5]) stood at 122 mg/kg. For the same compound, in the data set “Acute toxicity in mice”, the LD50 at 336 h was found to be 1280 mg/kg. In data set [2] (setting [6]), the ED50 came out at 142 mg/kg. Besides, the ED (-1.5 degC) in data set [3] (setting [7]) came to 66.8 mg/kg. Also, the “Average value of methemoglobin” value with methemoglobin (setting [8]) was 4.6 % of total hemoglobin; with methemoglobin (setting [9]) it was 3.5 % of total hemoglobin; in the data set with methemoglobin (setting [10]) it was 0.0 % of total hemoglobin; in the data set with methemoglobin (setting [11]), 8.1 % of total hemoglobin; with methemoglobin (setting [12]), 11.7 % of total hemoglobin; in the data set on methemoglobin (setting [13]), 0.0 % of total hemoglobin.

Turning to `CCOc1ccc(NC(C)=O)cc1` [D, Phenacetin, reference compound], the ED100 in data set [1] turned out to be 328 mg/kg. This compound also had an LD50 at 336 h in the data set “Acute toxicity in mice” of 1460 mg/kg. In addition, in data set [2], the ED50 was 274 mg/kg. For the same compound, in data set [3], the ED (-1.5 degC) is 34.4 mg/kg. The “Antipyretic activity (in words)” value in data set [3] (rat, in vivo) is listed as “an antipyretic activity”. Moreover, the “Average value of methemoglobin” value with methemoglobin (25 mg/kg, 3 hours after administration) is reported as 1.9 % of total hemoglobin; in the data set with methemoglobin (25 mg/kg, 5 hours after administration), 0.4 % of total hemoglobin; in the data set on methemoglobin (setting [14]), 19.6 % of total hemoglobin; with methemoglobin (setting [15]), 9.8 % of total hemoglobin; in the data set with methemoglobin (setting [16]) it was 0.5 % of total hemoglobin; in the data set with methemoglobin (setting [8]), 32.0 % of total hemoglobin. The “Average value of methemoglobin” value is 35.8 % of total hemoglobin in the data set with methemoglobin (setting [9]); 0.5 % of total hemoglobin with methemoglobin (setting [10]); 36.0 % of total hemoglobin in the data set on methemoglobin (setting [11]); 46.6 % of total hemoglobin in the data set with methemoglobin (setting [12]); 15.4 % of total hemoglobin in the data set on methemoglobin (setting [13]); 1.1 % of total hemoglobin in the data set on methemoglobin (200 mg/kg, 48 hours after administration).

For `CCOc1ccc2[nH]c(=O)sc2c1` [A, 6-Ethoxy-benzothiazol-2(3H)-one], the ED100 in data set [1] (setting [5]) turned out to be 154 mg/kg. Moreover, the LD50 at 336 h in “Acute toxicity in mice” came to 1200 mg/kg. Moreover, the ED50 in data set [2] (setting [6]) worked out at 64.3 mg/kg. In addition, in data set [3] (setting [7]), the ED (-1.5 degC) worked out at 84.3 mg/kg. The “Average value of methemoglobin” value is on record as 0.3 % of total hemoglobin with methemoglobin (setting [14]); 0.5 % of total hemoglobin in the data set on methemoglobin (setting [15]); 1.1 % of total hemoglobin in the data set with methemoglobin (setting [16]); 0.4 % of total hemoglobin in the data set on methemoglobin (setting [8]); 0.1 % of total hemoglobin in the data set on methemoglobin (setting [9]); 0.3 % of total hemoglobin in the data set with methemoglobin (setting [10]). Besides, the “Average value of methemoglobin” value is given as 1.0 % of total hemoglobin in the data set on methemoglobin (setting [11]), 0.4 % of total hemoglobin in the data set with methemoglobin (setting [12]) and 0.5 % of total hemoglobin in the data set on methemoglobin (setting [13]).

As to `Cc1ccc2[nH]c(=O)sc2c1` [C, 6-Methyl-benzothiazol-2(3H)-one], in data set [1] (setting [5]), the ED100 worked out at 144 mg/kg. The same compound had an LD50 at 336 h in the data set “Acute toxicity in mice” of 2160 mg/kg. Besides, in data set [2] (setting [6]), the ED50 amounted to 54.4 mg/kg. In data set [3] (setting [7]), the ED (-1.5 degC) worked out at 30.9 mg/kg. The “Average value of methemoglobin” value was 4.0 % of total hemoglobin in the data set with methemoglobin (setting [8]); 2.4 % of total hemoglobin in the data set on methemoglobin (setting [9]); 0.1 % of total hemoglobin in the data set with methemoglobin (setting [10]); 13.6 % of total hemoglobin with methemoglobin (setting [11]); 13.7 % of total hemoglobin in the data set with methemoglobin (setting [12]); 0.4 % of total hemoglobin in the data set with methemoglobin (setting [13]).

Take `O=c1[nH]c2ccccc2s1` [Example 2, Benzothiazol-2(3H)-one]: the “Antimicrobial and fungistatic activity” value in data set [4] is “antimicrobial and fungistatic acitivity”.
